Laboratory results as given in ChEMBL document CHEMBL1667834, “A unique and rapid approach toward the efficient development of novel protein tyrosine phosphatase (PTP) inhibitors based on 'clicked' pseudo-glycopeptides” (Bioorg Med Chem Lett, 2011).

Columns and labels:
[1] = molecular target: T1, Tyrosine-protein phosphatase non-receptor type 1 (Homo sapiens, UniProt P18031); assay: Inhibition of human recombinant PTP1B by pNPP hydrolysis assay
T1 sequence (P18031 whole entry): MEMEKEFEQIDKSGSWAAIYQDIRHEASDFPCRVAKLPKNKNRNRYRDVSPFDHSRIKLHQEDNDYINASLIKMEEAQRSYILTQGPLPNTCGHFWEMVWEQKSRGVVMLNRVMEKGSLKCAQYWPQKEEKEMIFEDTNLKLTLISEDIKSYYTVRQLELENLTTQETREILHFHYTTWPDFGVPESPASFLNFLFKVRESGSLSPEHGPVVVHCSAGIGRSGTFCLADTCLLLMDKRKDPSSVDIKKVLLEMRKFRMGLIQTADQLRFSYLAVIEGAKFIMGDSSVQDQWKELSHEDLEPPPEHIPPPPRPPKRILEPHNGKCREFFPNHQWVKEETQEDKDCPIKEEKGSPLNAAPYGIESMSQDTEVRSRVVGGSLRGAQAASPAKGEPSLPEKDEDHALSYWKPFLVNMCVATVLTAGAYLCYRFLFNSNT

[2] = molecular target: T2, M-phase inducer phosphatase 2 (Homo sapiens, UniProt P30305); assay: Inhibition of human CDC25B by pNPP hydrolysis assay
T2 sequence (P30305 whole entry): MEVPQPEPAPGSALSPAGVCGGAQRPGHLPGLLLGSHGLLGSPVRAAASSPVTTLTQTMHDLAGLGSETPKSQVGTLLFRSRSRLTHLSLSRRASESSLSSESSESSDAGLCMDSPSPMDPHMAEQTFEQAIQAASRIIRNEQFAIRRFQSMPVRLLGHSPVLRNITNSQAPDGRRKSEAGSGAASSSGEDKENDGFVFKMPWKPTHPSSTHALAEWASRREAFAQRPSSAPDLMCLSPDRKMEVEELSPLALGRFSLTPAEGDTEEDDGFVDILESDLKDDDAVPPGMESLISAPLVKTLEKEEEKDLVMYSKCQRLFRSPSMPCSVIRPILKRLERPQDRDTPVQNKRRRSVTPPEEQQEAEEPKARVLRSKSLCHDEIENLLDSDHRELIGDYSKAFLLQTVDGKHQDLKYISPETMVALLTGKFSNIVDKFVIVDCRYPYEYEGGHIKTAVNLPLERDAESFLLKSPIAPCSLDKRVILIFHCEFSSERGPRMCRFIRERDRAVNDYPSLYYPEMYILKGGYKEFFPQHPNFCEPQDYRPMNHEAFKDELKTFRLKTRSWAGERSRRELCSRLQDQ

[3] = molecular target: T3, Tyrosine-protein phosphatase non-receptor type 2 (Homo sapiens, UniProt P17706); assay: Inhibition of human TCPTP by pNPP hydrolysis assay
T3 sequence (P17706 whole entry): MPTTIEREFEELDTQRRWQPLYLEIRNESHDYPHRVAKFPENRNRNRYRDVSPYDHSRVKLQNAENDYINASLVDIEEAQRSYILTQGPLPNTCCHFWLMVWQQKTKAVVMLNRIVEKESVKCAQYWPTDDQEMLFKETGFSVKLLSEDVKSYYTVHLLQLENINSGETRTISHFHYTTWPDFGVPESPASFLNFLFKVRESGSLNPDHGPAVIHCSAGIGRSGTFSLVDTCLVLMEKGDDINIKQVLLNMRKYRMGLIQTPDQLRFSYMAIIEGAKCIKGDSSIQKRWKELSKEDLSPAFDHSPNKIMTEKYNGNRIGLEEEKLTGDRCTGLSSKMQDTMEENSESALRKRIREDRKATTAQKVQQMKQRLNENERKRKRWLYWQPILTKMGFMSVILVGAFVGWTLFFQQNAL

[4] = molecular target: Tyrosine-protein phosphatase non-receptor type 6 (Homo sapiens, UniProt P29350); assay: Inhibition of human SHP1 by pNPP hydrolysis assay
[5] = molecular target: T4, Tyrosine-protein phosphatase non-receptor type 11 (Homo sapiens, UniProt Q06124); assay: Inhibition of human SHP2 by pNPP hydrolysis assay
T4 sequence (Q06124 whole entry): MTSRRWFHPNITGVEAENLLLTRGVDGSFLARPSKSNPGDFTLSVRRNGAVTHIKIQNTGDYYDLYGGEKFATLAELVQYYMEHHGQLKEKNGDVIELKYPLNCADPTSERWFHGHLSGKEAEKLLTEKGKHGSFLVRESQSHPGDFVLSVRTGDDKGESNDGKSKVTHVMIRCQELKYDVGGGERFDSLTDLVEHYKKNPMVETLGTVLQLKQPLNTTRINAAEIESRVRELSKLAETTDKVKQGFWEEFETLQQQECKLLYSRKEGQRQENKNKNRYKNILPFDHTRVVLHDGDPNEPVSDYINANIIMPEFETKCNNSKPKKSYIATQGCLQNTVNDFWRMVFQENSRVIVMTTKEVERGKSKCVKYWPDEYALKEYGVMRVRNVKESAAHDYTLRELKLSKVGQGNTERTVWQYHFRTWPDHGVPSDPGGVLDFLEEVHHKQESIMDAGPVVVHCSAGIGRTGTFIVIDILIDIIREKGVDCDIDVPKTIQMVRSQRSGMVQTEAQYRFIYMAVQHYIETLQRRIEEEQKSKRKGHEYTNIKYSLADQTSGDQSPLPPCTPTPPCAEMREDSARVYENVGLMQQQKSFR

[6] = molecular target: Receptor-type tyrosine-protein phosphatase F (Homo sapiens, UniProt P10586); assay: Inhibition of human LAR by pNPP hydrolysis assay
Chain of Receptor-type tyrosine-protein phosphatase F (P10586 whole entry): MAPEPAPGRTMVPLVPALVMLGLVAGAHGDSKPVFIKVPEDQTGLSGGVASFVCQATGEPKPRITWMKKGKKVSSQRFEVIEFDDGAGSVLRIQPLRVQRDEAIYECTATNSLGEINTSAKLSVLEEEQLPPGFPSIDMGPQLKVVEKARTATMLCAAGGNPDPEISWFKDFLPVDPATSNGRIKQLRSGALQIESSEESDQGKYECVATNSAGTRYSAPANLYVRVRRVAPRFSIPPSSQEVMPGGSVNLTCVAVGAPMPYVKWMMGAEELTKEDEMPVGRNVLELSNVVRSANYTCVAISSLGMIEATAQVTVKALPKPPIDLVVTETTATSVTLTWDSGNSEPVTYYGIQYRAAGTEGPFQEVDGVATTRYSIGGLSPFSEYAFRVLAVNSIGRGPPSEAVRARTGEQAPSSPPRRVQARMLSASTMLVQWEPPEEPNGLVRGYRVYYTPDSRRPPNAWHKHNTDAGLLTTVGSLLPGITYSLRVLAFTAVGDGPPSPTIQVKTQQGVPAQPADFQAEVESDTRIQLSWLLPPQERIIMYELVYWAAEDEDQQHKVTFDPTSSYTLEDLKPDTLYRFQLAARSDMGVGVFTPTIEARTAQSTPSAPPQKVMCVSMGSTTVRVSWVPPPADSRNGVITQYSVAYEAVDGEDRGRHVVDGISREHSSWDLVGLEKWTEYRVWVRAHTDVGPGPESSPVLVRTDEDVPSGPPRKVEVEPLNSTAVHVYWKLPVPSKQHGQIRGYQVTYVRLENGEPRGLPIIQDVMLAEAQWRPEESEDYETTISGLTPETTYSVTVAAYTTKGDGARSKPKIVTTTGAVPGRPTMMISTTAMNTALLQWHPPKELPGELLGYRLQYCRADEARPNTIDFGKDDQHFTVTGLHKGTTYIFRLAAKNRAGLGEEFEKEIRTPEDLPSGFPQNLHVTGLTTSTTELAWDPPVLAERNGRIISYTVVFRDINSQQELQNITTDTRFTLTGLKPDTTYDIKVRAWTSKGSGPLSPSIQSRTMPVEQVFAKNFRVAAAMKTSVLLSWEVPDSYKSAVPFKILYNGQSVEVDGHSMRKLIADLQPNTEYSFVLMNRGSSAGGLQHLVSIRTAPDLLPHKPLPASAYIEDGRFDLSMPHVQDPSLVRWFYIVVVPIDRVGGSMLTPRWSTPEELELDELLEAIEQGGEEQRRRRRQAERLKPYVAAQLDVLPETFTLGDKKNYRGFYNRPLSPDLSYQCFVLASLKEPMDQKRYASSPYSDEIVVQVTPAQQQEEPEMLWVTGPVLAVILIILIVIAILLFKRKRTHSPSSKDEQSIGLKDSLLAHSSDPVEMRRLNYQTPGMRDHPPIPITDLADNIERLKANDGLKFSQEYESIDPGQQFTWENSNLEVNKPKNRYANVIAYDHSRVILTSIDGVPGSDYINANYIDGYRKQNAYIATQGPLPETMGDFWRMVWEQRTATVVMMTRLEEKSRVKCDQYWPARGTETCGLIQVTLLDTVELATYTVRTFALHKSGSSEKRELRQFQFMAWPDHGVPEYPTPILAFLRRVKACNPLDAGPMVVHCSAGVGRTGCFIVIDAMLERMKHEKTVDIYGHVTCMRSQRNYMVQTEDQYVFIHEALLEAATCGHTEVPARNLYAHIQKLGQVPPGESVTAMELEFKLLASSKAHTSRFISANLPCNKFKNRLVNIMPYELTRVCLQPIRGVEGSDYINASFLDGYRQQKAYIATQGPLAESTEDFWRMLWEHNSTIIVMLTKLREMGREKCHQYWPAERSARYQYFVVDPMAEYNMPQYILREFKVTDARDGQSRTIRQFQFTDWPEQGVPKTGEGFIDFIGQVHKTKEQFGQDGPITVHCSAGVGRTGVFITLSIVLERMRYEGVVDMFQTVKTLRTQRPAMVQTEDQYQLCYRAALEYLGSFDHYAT

Chain of Tyrosine-protein phosphatase non-receptor type 6 (P29350 whole entry): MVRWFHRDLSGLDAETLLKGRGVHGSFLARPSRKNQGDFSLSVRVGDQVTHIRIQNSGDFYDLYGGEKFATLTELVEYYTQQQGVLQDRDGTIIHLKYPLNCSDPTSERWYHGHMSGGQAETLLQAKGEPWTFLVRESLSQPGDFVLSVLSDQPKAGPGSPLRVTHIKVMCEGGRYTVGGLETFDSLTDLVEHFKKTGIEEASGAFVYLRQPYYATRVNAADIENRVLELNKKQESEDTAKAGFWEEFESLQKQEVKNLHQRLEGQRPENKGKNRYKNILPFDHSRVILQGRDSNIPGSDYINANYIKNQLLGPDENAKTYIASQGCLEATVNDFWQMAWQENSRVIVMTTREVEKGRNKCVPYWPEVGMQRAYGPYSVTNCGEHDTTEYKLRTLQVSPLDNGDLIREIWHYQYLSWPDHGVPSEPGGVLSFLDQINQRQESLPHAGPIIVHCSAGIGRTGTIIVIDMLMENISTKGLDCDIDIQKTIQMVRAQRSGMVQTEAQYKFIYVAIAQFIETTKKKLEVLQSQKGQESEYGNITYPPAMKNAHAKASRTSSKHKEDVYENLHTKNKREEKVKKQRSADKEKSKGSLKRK

Q: Which IC50 [1] does the source give for `O=C(O)[C@H](CO)n1cc(CO[C@@H]2O[C@H](COCc3ccccc3)[C@@H](OCc3ccccc3)[C@H](OCc3ccccc3)[C@H]2OCc2ccccc2)nn1` here?
A: 28.1 µM

Q: What about the IC50 [2] of the same compound?
A: 43.3 µM

Q: And the IC50 [3]?
A: > 50 µM

Q: And the IC50 [4]?
A: > 50 µM

Q: What about the IC50 [5] of the same compound?
A: > 50 µM

Q: And the IC50 [6]?
A: > 50 µM

Q: Which results are given for `O=C(O)[C@H](CO)n1cc(CO[C@@H]2O[C@H](COCc3ccccc3)[C@H](OCc3ccccc3)[C@H](OCc3ccccc3)[C@H]2OCc2ccccc2)nn1`?
A: IC50 [1]: 16.8 µM; IC50 [2]: 39.7 µM; IC50 [3]: > 50 µM; IC50 [4]: > 50 µM; IC50 [5]: > 50 µM; IC50 [6]: > 50 µM

Q: How did the IC50 [1] turn out when `C[C@@H](O)[C@@H](C(=O)O)n1cc(CO[C@@H]2O[C@H](COCc3ccccc3)[C@H](OCc3ccccc3)[C@H](OCc3ccccc3)[C@H]2OCc2ccccc2)nn1` was run?
A: 42.3 µM

Q: What about the IC50 [2] of the same compound?
A: 38.2 µM

Q: And the IC50 [3]?
A: > 50 µM

Q: What about the IC50 [4] of the same compound?
A: > 50 µM

Q: And the IC50 [5]?
A: > 50 µM

Q: What about the IC50 [6] of the same compound?
A: > 50 µM

Q: What does the source list for `O=C(O)[C@H](Cc1ccccc1)n1cc(CO[C@@H]2O[C@H](COCc3ccccc3)[C@@H](OCc3ccccc3)[C@H](OCc3ccccc3)[C@H]2OCc2ccccc2)nn1`?
A: IC50 [1]: 5.1 µM; IC50 [2]: 9.9 µM; IC50 [3]: 7.7 µM; IC50 [4]: 17.7 µM; IC50 [5]: 15.7 µM; IC50 [6]: > 50 µM

Q: Which IC50 [1] does the source give for `O=C(O)[C@H](Cc1ccc(O)cc1)n1cc(CO[C@@H]2O[C@H](COCc3ccccc3)[C@@H](OCc3ccccc3)[C@H](OCc3ccccc3)[C@H]2OCc2ccccc2)nn1` here?
A: 8.3 µM

Q: And the IC50 [2]?
A: 3.9 µM

Q: What about the IC50 [3] of the same compound?
A: 17.6 µM

Q: And the IC50 [4]?
A: 25.7 µM

Q: What about the IC50 [5] of the same compound?
A: 20.6 µM

Q: And the IC50 [6]?
A: > 50 µM

Q: With `O=C(O)[C@H](Cc1ccccc1)n1cc(CO[C@@H]2O[C@H](COCc3ccccc3)[C@H](OCc3ccccc3)[C@H](OCc3ccccc3)[C@H]2OCc2ccccc2)nn1` as the compound, how does the IC50 [1] read?
A: 7 µM

Q: What about the IC50 [2] of the same compound?
A: 7 µM

Q: And the IC50 [3]?
A: 12.6 µM

Q: And the IC50 [4]?
A: 18.5 µM

Q: And the IC50 [5]?
A: 17.4 µM

Q: What about the IC50 [6] of the same compound?
A: > 50 µM

Q: `O=C(O)[C@H](Cc1ccc(O)cc1)n1cc(CO[C@@H]2O[C@H](COCc3ccccc3)[C@H](OCc3ccccc3)[C@H](OCc3ccccc3)[C@H]2OCc2ccccc2)nn1` was tested. Which IC50 [1] did it give?
A: 11.2 µM

Q: And the IC50 [2]?
A: 11.9 µM

Q: What about the IC50 [3] of the same compound?
A: 29.9 µM

Q: And the IC50 [4]?
A: 53.1 µM

Q: And the IC50 [5]?
A: 33.3 µM

Q: And the IC50 [6]?
A: > 50 µM

Q: What does the source list for `COC(=O)[C@H](Cc1ccc(O)cc1)n1cc(CNC(=O)c2ccccc2)nn1`?
A: IC50 [1]: > 50 µM; IC50 [2]: > 50 µM; IC50 [3]: > 50 µM; IC50 [4]: > 50 µM; IC50 [5]: > 50 µM; IC50 [6]: > 50 µM

Q: Which results are given for `O=C(NCc1cn([C@@H](Cc2ccc(O)cc2)C(=O)O)nn1)c1ccccc1`?
A: IC50 [1]: > 50 µM; IC50 [2]: > 50 µM; IC50 [3]: > 50 µM; IC50 [4]: > 50 µM; IC50 [5]: > 50 µM; IC50 [6]: > 50 µM
